Reference: US20260193170A1 (University of Copenhagen, priority 2022, published 2026)

Molecular target: T1, human Keap1 Kelch domain (Homo sapiens, UniProt Q14145)
T1 construct: human Keap1 Kelch domain (residue 321-609, UniProt Q14145); made in house; host or cells: Escherichia coli BL21 (DE3) pLysS, pRSET A vector
Test: Fluorescence polarization (FP) competition assay, Cy5-Nrf2 peptide probe
Type: binding
Conditions: heterologous competition FP; Keap1 Kelch 14 nM, Cy5-Nrf2 probe 3 nM, 4% DMSO; mean ± SEM
Method: The binding affinities between the fluorescent peptide probe Cy5-Nrf2 (SEQ: Cy5-[…]-NH2) and the human Keap1 Kelch domain were determined as Kd values by saturation binding experiments, where increasing concentrations of Keap1 (0-300 nM) were added to a fixed concentration of peptide probe (3 nM). The assay was performed in a 1× HBSTET buffer (10 mM HEPES, 150 mM NaCl, 0.005% Tween20, 3 mM ethylenediaminetetraacetic acid (EDTA), 1 mM TCEP, pH=7.4) using black flat-bottom 384-well plates (Corning Life Sciences, NY), a volume of 30 μL/well, and a final DMSO concentration of 4% or 8%. The assay plate was spun down to ascertain proper mixing and removal of potential air bubbles and incubated for 10-15 min at room temperature before measuring the FP levels on a Safire2 plate reader (Tecan, Mannedorf, Switzerland). The g-factor was adjusted at each experiment so that a series of three blank wells containing probe but no Keap1 Kelch defined the baseline FP value. The Cy5-Nrf2 probe was measured at excitation/emission values of 635:670 nm. The FP values were fitted to the one-site specific binding equation: Y=Bmax×X/(Kd+X), with Bmax being the maximal FP value, X the Keap1 Kelch concentration, and Y the variable FP values. The Kd values were derived from the resulting binding saturation curve as being equal to the Keap1 Kelch concentration, where the curve is half-saturated.
The affinities between nonfluorescent small molecule Keap1 inhibitors and Keap1 Kelch were determined as Ki values in a heterologous competition FP binding assay. This was done by adding increasing concentration of test compound (2-fold serial dilutions, 12 concentrations tested per inhibition curve as duplicates) to a fixed concentration of Keap1 Kelch (14 nM) and the Cy5-Nrf2 peptide probe (3 nM) in the same HBSTET buffer and conditions as described above (final DMSO concentrations were 4%). FP values were fitted to the equation Y=Bottom+(Top−Bottom)/[1+(10^HillSlope×(log IC50−X))], where X is the logarithmic value of compound concentration. Hereby, the IC50 value was obtained, which together with the […] value and probe and Keap1 Kelch concentrations was used to calculate the theoretical competitive inhibition constant, the Ki value. 43 Ki values are shown as mean±SEM (standard error of mean) if based on two or more individual measurements.

T1 sequence (Q14145 321-609): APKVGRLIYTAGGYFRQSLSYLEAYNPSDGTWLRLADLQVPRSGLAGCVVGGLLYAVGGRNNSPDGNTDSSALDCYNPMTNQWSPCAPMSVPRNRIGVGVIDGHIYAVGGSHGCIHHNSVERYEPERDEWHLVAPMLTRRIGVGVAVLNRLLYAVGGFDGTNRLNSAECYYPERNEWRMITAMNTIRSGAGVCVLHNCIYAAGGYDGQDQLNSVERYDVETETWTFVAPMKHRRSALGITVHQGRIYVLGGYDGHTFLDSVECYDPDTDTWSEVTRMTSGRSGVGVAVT

Row | Compound | Ki [µM]
1 | O=C(O)CCc1ccc2ccc(OCC(=O)NC3CCCCC3)cc2c1 [1a, 3-(7-(2-(Cyclohexylamino)-2-oxoethoxy)naphthalen-2-yl)propanoic acid] | 14 ± 0.8
2 | O=C(O)CCc1ccc2ccc(OCC(=O)NC3CCOCC3)cc2c1 [1b, 3-(7-(2-Oxo-2-((tetrahydro-2H-pyran-4-yl)amino)ethoxy)naphthalen-2-yl)propanoic acid] | 38 ± 3
3 | O=C(O)CCc1ccc2ccc(OCC(=O)NN3CCOCC3)cc2c1 [1c, 3-(7-(2-Morpholinoamino-2-oxoethoxy)naphthalen-2-yl)propanoic acid] | 268 ± 29
4 | Cc1cc(C)c(C)c(NC(=O)COc2ccc3ccc(CCC(=O)O)cc3c2)c1C [1g, 3-(7-(2-Oxo-2-((2,3,5,6-tetramethylphenyl)amino)ethoxy)naphthalen-2-yl)propanoic acid] | 196 ± 24
5 | O=C(O)CCc1ccc2ccc(OCC(=O)Nc3ccccc3)cc2c1 [1h, 3-(7-(2-oxo-2-(phenylamino)ethoxy)naphthalen-2-yl)propanoic acid] | 7.8 ± 0.1
6 | O=C(O)CC(c1ccccc1)c1ccc2ccc(OCC(=O)NC3CCCCCC3)cc2c1 (stereo not drawn) [2a, 3-(7-(2-(Cycloheptylamino)-2-oxoethoxy)naphthalen-2-yl)-3-phenylpropanoic acid] | 1.1 ± 0.1
7 | O=C(O)CC(c1ccc(O)cc1)c1ccc2ccc(OCC(=O)NC3CCCCCC3)cc2c1 (stereo not drawn) [2b, 3-(7-(2-(Cycloheptylamino)-2-oxoethoxy)naphthalen-2-yl)-3-(4-hydroxyphenyl)propanoic acid] | 0.181 ± 0.02
8 | CC(C)Oc1ccc(C(CC(=O)O)c2ccc3ccc(OCC(=O)NC4CCCCCC4)cc3c2)cc1 (stereo not drawn) [2f, 3-(7-(2-(Cycloheptylamino)-2-oxoethoxy)naphthalen-2-yl)-3-(4-isopropoxyphenyl)propanoic acid] | 0.101 ± 0.005
9 | COc1cccc(C(CC(=O)O)c2ccc3ccc(OCC(=O)NC4CCCCCC4)cc3c2)c1 (stereo not drawn) [2h, 3-(7-(2-(Cycloheptylamino)-2-oxoethoxy)naphthalen-2-yl)-3-(3-methoxyphenyl)propanoic acid] | 0.284 ± 0.03
10 | O=C(O)CC(c1cccc(Cl)c1)c1ccc2ccc(OCC(=O)NC3CCCCCC3)cc2c1 (stereo not drawn) [2i, 3-(3-Chlorophenyl)-3-(7-(2-(cycloheptylamino)-2-oxoethoxy)naphthalen-2-yl)propanoic acid] | 0.054 ± 0.006
11 | COc1ccc(C(CC(=O)O)c2ccc3ccc(OCC(=O)NC4CCCCCC4)cc3c2)c(C)c1 (stereo not drawn) [2k, 3-(7-(2-(Cycloheptylamino)-2-oxoethoxy)naphthalen-2-yl)-3-(4-methoxy-2-methylphenyl)propanoic acid] | 0.027 ± 0.003
12 | O=C(O)CC(c1ccc2c(c1)OCO2)c1ccc2ccc(OCC(=O)NC3CCCCCC3)cc2c1 (stereo not drawn) [2m, 3-(benzo[d][1,3]dioxol-5-yl)-3-(7-(2-(cycloheptylamino)-2-oxoethoxy)naphthalen-2-yl)propanoic acid] | 0.023 ± 0.002
13 | Cc1cc2c(cc1C(CC(=O)O)c1ccc3ccc(OCC(=O)NC4CCCCCC4)cc3c1)OCO2 (stereo not drawn) [2n, 3-(7-(2-(cycloheptylamino)-2-oxoethoxy)naphthalen-2-yl)-3-(6-methylbenzo[d][1,3]dioxol-5-yl)propanoic acid] | 0.008 ± 0.002
14 | CCn1nnc2c(C)c(C(CC(=O)O)c3ccc4ccc(OCC(=O)NC5CCCCCC5)cc4c3)ccc21 (stereo not drawn) [2p, 3-(7-(2-(cycloheptylamino)-2-oxoethoxy)naphthalen-2-yl)-3-(1-ethyl-4-methyl-1H-benzo[d][1,2,3]triazol-5-yl)propanoic acid] | 0.0059 ± 0.0007
15 | O=C(O)CC(c1ccc2c(c1)OC(F)(F)O2)c1ccc2ccc(OCC(=O)NC3CCCCCC3)cc2c1 (stereo not drawn) [2r, 3-(7-(2-(cycloheptylamino)-2-oxoethoxy)naphthalen-2-yl)-3-(2,2-difluorobenzo[d][1,3]dioxol-5-yl)propanoic acid] | 0.034 ± 0.005
16 | O=C(O)CC(c1ccc2c(c1)OCCO2)c1ccc2ccc(OCC(=O)NC3CCCCCC3)cc2c1 (stereo not drawn) [2s, 3-(7-(2-(cycloheptylamino)-2-oxoethoxy)naphthalen-2-yl)-3-(2,3-dihydrobenzo[b][1,4]dioxin-6-yl)propanoic acid] | 0.015 ± 0.003
17 | O=C(O)CC(c1ccc2ccc(OCC(=O)NC3CCCCCC3)cc2c1)c1ccc2occc2c1 (stereo not drawn) [2t, 3-(Benzofuran-5-yl)-3-(7-(2-(cycloheptylamino)-2-oxoethoxy)naphthalen-2-yl)propanoic acid] | 0.038 ± 0.002
18 | Cc1cc2c(cc1C(CC(=O)O)c1ccc3ccc(OCC(=O)NC4CCCCCC4)cc3c1)OCCO2 (stereo not drawn) [2u, 3-(7-(2-(Cycloheptylamino)-2-oxoethoxy)naphthalen-2-yl)-3-(7-methyl-2,3-dihydrobenzo[b][1,4]dioxin-6-yl)propanoic acid] | 0.009 ± 0.003
19 | Cc1cc2c(cc1C(CC(=O)O)c1ccc3ccc(OCC(=O)NC4CCCCCC4)cc3c1)OC(F)(F)O2 (stereo not drawn) [2w, 3-(7-(2-(cycloheptylamino)-2-oxoethoxy)naphthalen-2-yl)-3-(2,2-difluoro-6-methylbenzo[d][1,3]dioxol-5-yl)propanoic acid] | 0.014 ± 0.002

More lines, now with the values ahead:

Row | Ki [µM] | Compound
20 | 6 ± 0.3 | O=C(O)CCc1ccc2ccc(OCC(=O)NC3CCCCCC3)cc2c1 [1d, 3-(7-(2-(Cycloheptylamino)-2-oxoethoxy)naphthalen-2-yl)propanoic acid]
21 | 75 ± 10 | COc1ccc(NC(=O)COc2ccc3ccc(CCC(=O)O)cc3c2)cc1 [1e, 3-(7-(2-((4-Methoxyphenyl)amino)-2-oxoethoxy)naphthalen-2-yl)propanoic acid]
22 | 22 ± 0.8 | Cc1cc(C)c(NC(=O)COc2ccc3ccc(CCC(=O)O)cc3c2)c(C)c1 [1f, 3-(7-(2-(Mesitylamino)-2-oxoethoxy)naphthalen-2-yl)propanoic acid]
23 | 0.294 ± 0.03 | O=C(O)CC(c1ccc(Cl)cc1)c1ccc2ccc(OCC(=O)NC3CCCCCC3)cc2c1 (stereo not drawn) [2c, 3-(4-Chlorophenyl)-3-(7-(2-(cycloheptylamino)-2-oxoethoxy)naphthalen-2-yl)propanoic acid]
24 | 0.032 ± 0.03 | COc1ccc(C(CC(=O)O)c2ccc3ccc(OCC(=O)NC4CCCCCC4)cc3c2)cc1 (stereo not drawn) [2d, 3-(7-(2-(Cycloheptylamino)-2-oxoethoxy)naphthalen-2-yl)-3-(4-methoxyphenyl)propanoic acid]
25 | 0.041 ± 0.005 | CCOc1ccc(C(CC(=O)O)c2ccc3ccc(OCC(=O)NC4CCCCCC4)cc3c2)cc1 (stereo not drawn) [2e, 3-(7-(2-(Cycloheptylamino)-2-oxoethoxy)naphthalen-2-yl)-3-(4-ethoxyphenyl)propanoic acid]
26 | 0.203 ± 0.03 | O=C(O)CC(c1cccc(O)c1)c1ccc2ccc(OCC(=O)NC3CCCCCC3)cc2c1 (stereo not drawn) [2g, 3-(7-(2-(Cycloheptylamino)-2-oxoethoxy)naphthalen-2-yl)-3-(3-hydroxyphenyl)propanoic acid]
27 | 0.61 ± 0.06 | COc1ccc(C(CC(=O)O)c2ccc3ccc(OCC(=O)NC4CCCCCC4)cc3c2)cc1C (stereo not drawn) [2j, 3-(7-(2-(Cycloheptylamino)-2-oxoethoxy)naphthalen-2-yl)-3-(4-methoxy-3-methylphenyl)propanoic acid]
28 | 0.06 ± 0.008 | Cc1c(Cl)cccc1C(CC(=O)O)c1ccc2ccc(OCC(=O)NC3CCCCCC3)cc2c1 (stereo not drawn) [2l, 3-(3-chloro-2-methylphenyl)-3-(7-(2-(cycloheptylamino)-2-oxoethoxy)naphthalen-2-yl)propanoic acid]
29 | 0.0035 ± 0.0006 | COc1cc(C(CC(=O)O)c2ccc3ccc(OCC(=O)NC4CCCCCC4)cc3c2)cc2nnn(C)c12 (stereo not drawn) [2o, 3-(7-(2-(cycloheptylamino)-2-oxoethoxy)naphthalen-2-yl)-3-(7-methoxy-1-methyl-1H-benzo[d][1,2,3]triazol-5-yl)propanoic acid]
30 | 0.036 ± 0.003 | O=C(O)CC(c1ccc2c(c1)CCO2)c1ccc2ccc(OCC(=O)NC3CCCCCC3)cc2c1 (stereo not drawn) [2q, 3-(7-(2-(cycloheptylamino)-2-oxoethoxy)naphthalen-2-yl)-3-(2,3-dihydrobenzofuran-5-yl)propanoic acid]
31 | 0.097 ± 0.013 | Cc1ccc(Cl)cc1C(CC(=O)O)c1ccc2ccc(OCC(=O)NC3CCCCCC3)cc2c1 (stereo not drawn) [2v, 3-(5-chloro-2-methylphenyl)-3-(7-(2-(cycloheptylamino)-2-oxoethoxy)naphthalen-2-yl)propanoic acid]
32 | 0.009 ± 0.002 | O=C(O)CC(c1ccc2ccc(OCC(=O)NC3CCCCCC3)cc2c1)c1cc2c(cc1Cl)OCO2 (stereo not drawn) [2z, 3-(6-chlorobenzo[d][1,3]dioxol-5-yl)-3-(7-(2-(cycloheptylamino)-2-oxoethoxy)naphthalen-2-yl)propanoic acid]
33 | 0.07 ± 0.003 | COc1ccc(C(CC(=O)O)c2ccc3ccc(OCC(=O)NC4CCCCC4)cc3c2)cc1 (stereo not drawn) [3a, 3-(7-(2-(cyclohexylamino)-2-oxoethoxy)naphthalen-2-yl)-3-(4-methoxyphenyl)propanoic acid]
